# According to article PMC9306587 (European Journal of Immunology, 2022):
# Key:
# HLA-E*01:03 [1] = target: T1, HLA-E*01:03 (Homo sapiens, UniProt P13747); assay: pHLA-E complex stability by SPR (ILT2 binding over time); conditions: for t1/2: Table S2, SPR BIAcore T200, biotinylated pHLA-E monomers on streptavidin CM5 chip, 1 μM soluble ILT2 at regular intervals over 5 h, 25°C
# T1 construct: made in house
# Procedure: HLA‐E heavy chain (without transmembrane domain and with or without a C‐terminal biotinylation tag, AviTagsequence) and β2m were expressed and refolded with the peptide of interest and subsequently purified, as previously described. To biotinylate complexes prior to size exclusion chromatography, complexes were AviTag treated with biotin‐protein ligase (BirA) according to the manufacturer's instructions (Avidity BirA‐500 kit).
# The stability of all pHLA‐E complexes was assessed by SPR using a BIAcore T200 instrument. Purified biotinylated pHLA‐E monomers (HLA‐E*01:03 was used throughout) were immobilized onto a streptavidin‐coupled CM5 sensor chip. A total of 1 μM of soluble ILT2 was flowed over the chip at 10 μL/min for 60 s. ILT2 binding to pHLA‐E complexes was measured at regular intervals over 5 h and responses were normalized by subtracting the bulk buffer response of a control flow cell containing no pHLA. Binding t 1/2 was calculated by plotting % activity against time using the Biacore T200 evaluation software version 3.0 and GraphPad Prism version 8.3.0.
# HLA-ES147C = target: T2, HLA-ES147C (Homo sapiens, UniProt P13747, S168C); assay type: binding
# T2 construct: made in house
# HLA-E*01:03 [2] = target: T1, HLA-E*01:03; assay: pHLA Thermofluor (thermal shift) assay; assay type: binding; conditions: Table S2; SYPRO Orange thermal shift, pHLA 0.25 mg/mL in PBS, 10 to 95°C at 1°C/min, triplicate; two independent experiments
# Procedure: Thermal shift assay experiments were performed using a RT‐PCR instrument (Quantstudio 6, Applied Biosystems). SYPRO Orange protein gel stain (5000× stock solution) was diluted in PBS to yield a 75× working solution. In a 96‐well plate, 23 μL of pHLA at 0.25 mg/mL was added to 2 μL of SYPRO Orange working solution to a final volume of 25 μL, with each pHLA prepared in triplicate. Mixtures were heated from 10 to 95°C with a temperature increment of 1°C/min. Fluorescence was detected using the FAM filter set, with excitation and emission wavelength at 495 and 518 nm, respectively. Data analysis was performed using Protein Thermal Shift Software version 1.4 (Thermofisher Scientific) to determine Tm.
sequence,measurement,setting,value
VMAPRTLLL [LA13-11],t1/2,HLA-E*01:03 [1],2.8 h
same,t1/2,HLA-E*01:03 [1]; representative of at least two independent experiments,2.8 h
same,t1/2(hours) HLA-E,"HLA-E*01:03 [1]; Table S4, SPR with ILT2 over 5 h",2.8 h
same,t1/2(hours) HLA-ES147C(H3C),HLA-ES147C,16.74 h
same,Average Tm,HLA-E*01:03 [2],47.87 °C
